Molecules are shown by their SMILES. Structures can show the parent of a compound that is named as a salt.

Chain of IDO2 (Q6ZQW0 whole entry, species assumed): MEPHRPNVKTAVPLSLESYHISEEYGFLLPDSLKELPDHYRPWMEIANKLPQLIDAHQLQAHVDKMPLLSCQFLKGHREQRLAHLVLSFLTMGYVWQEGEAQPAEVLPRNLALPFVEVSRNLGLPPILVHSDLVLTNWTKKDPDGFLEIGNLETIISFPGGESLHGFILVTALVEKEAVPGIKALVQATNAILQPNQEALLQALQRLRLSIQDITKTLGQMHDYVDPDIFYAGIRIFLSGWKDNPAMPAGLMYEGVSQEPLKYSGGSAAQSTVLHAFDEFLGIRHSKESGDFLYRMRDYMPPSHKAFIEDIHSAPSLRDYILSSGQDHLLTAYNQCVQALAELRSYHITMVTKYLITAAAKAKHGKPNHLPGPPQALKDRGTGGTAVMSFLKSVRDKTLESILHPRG

The first experiment concerns the target IDO2 (Homo sapiens (Human), UniProt Q6ZQW0). Put plainly: Cellular IDO2 assay, doxycycline and 5-methoxy-L-tryptophan medium, colorimetric. The format is cell-based. The conditions noted are these: cellular level, 72 h incubation, signal at 480 nm.
Description: IDO2 inhibition at the cellular level was evaluated in vitro using the following procedure.
Using cell culture medium, the volume of the suspension was adjusted to achieve a cell concentration of 20,000 cells/well (90 uL/well).
5-Methoxy-L-tryptophan powder was dissolved in the culture medium to a concentration of 10 mM, then filtered and sterilized with a 0.22 um filter. Doxycycline powder was dissolved in ddH2O to a concentration of 100 ug/ml, then filtered and sterilized with a 0.22 um filter. 5-aminolevulinic acid powder was dissolved in ddH2O to a concentration of 400 mM, then filtered and sterilized with a 0.22 um filter. A 2× Assay medium was then by diluting the doxycycline (from 100 ug/ml to 2 ug/ml) and 5-Methoxy-L-tryptophan (from 10 mM to 5 mM) in culture medium. The 5-aminolevulinic acid solution was also added to the solution (diluting the concentration from 400 mM to 2 mM) to get a 2× working solution.
After incubation, plates and reagents were allows to equilibrate to room temperature. […] Trichloroacetic acid powder was dissolved in ddH2O to prepare 6.1N trichloroacetic acid. […] The plates were incubated at 55° C. for 40 minutes, and then centrifuged for 10 min at 2500 rpm. […] Measurement of the signal was performed using Envision at 480 nm. Throughout the foregoing process, care was taken to prevent exposure to light.
With `CS(=O)(=O)c1ccc2c(c1)C(=O)c1nc3cc(F)ccc3c(=O)n1-2` [Compound 14, 3-Fluoro-8-(methylsulfonyl)indolo[2,1-b]quinazoline-6,12-dione], the IC50 – broadly, the midpoint of a concentration-inhibition curve – was below 50 nM.

`N#Cc1ccc2c(c1)C(=O)c1nc3c(Br)cccc3c(=O)n1-2` [Compound 46, 4-bromo-6,12-dioxo-6,12-dihydroindolo[2,1-b]quinazoline-8-carbonitrile]: the half-maximal inhibitory concentration (IC50) is below 50 nM.

In the case of `O=C1c2cc([N+](=O)[O-])ccc2-n2c1nc1c(Br)c(Cl)ccc1c2=O` [Compound 50, 4-Bromo-3-chloro-8-nitroindolo[2,1-b]quinazoline-6,12-dione], the IC50 lay within 50 to 500 nM.

`NC(=O)c1ccc2c(c1)C(=O)c1nc3cc(Cl)cc(Cl)c3c(=O)n1-2` [Compound 23, 1,3-Dichloro-6,12-dioxoindolo[2,1-b]quinazoline-8-carboxamide] gave a half-maximal inhibitory concentration (IC50) of 50 to 500 nM.

The compound `Cc1cccc2nc3n(c(=O)c12)-c1ccc([N+](=O)[O-])cc1C3=O` [Compound 38, 1-Methyl-8-nitroindolo[2,1-b]quinazoline-6,12-dione] yielded an IC50 below 50 nM.

Consider `NCc1cccc2nc3n(c(=O)c12)-c1ccc(F)cc1C3=O` [Compound 101, 1-(aminomethyl)-8-fluoroindolo[2,1-b]quinazoline-6,12-dione], for which the IC50 was in the range of 50 to 500 nM.

As for `O=C1c2cc(F)ccc2-n2c1nc1c(OCc3ccc(F)cc3)cccc1c2=O` [Compound 124], the IC50 fell in the range of 50 to 500 nM.

Compound `CON=C1c2cc(C#N)ccc2-n2c1nc1c(Nc3ccc(F)cc3)cccc1c2=O` (stereo in doubt) [Compound 118, (Z)-4-((4-Fluorophenyl)amino)-6-(methoxyimino)-12-oxo-6,12-dihydroindolo[2,1-b]quinazoline-8-carbonitrile] came in with an IC50 below 50 nM.

With `O=C1c2cc(F)ccc2-n2c1nc1ccc(CBr)cc1c2=O` [Compound 133, 2-(bromomethyl)-8-fluoroindolo[2,1-b]quinazoline-6,12-dione], the IC50 is below 50 nM.

In the case of `CC1(CCC(=O)Nc2ccc3c(c2)C(=O)c2nc4cc(Cl)ccc4c(=O)n2-3)N=N1` [Compound 73], the IC50 lay in the range of 50 to 500 nM.

Consider `O=C1c2cc([N+](=O)[O-])ccc2-n2c1nc1cc(Cl)cc(Cl)c1c2=O` [Compound 56, 1,3-Dichloro-8-nitroindolo[2,1-b]quinazoline-6,12-dione], for which the IC50 was in the range of 50 to 500 nM.

For `O=C1c2cc(F)ccc2-n2c1nc1cc(-c3c[nH]cn3)ccc1c2=O` [Compound 89, 8-fluoro-3-(1H-imidazol-4-yl)indolo[2,1-b]quinazoline-6,12-dione], the half-inhibitory concentration (IC50) lay within 50 to 500 nM.

Turning to `O=C1c2cc(SCc3ccccc3)ccc2-n2c1nc1cc(Cl)ccc1c2=O` [Compound 78], the IC50 is 50 to 500 nM.

Compound `COc1cc(OC)nc(Nc2ccc3nc4n(c(=O)c3c2)-c2ccc(F)cc2C4=O)n1` [Compound 135, 2-((4,6-dimethoxypyrimidin-2-yl)amino)-8-fluoroindolo[2,1-b]quinazoline-6,12-dione] showed a 50% inhibitory concentration (IC50) below 50 nM.

`NS(=O)(=O)c1ccc2c(c1)C(=O)c1nc3c(Cl)cccc3c(=O)n1-2` [Compound 116] displayed an IC50 of 50 to 500 nM.

In turn, `N#Cc1ccc2c(c1)C(=O)c1nc3cc(F)cc(F)c3c(=O)n1-2` [Compound 114] came in with an IC50 of 50 to 500 nM.

In turn, `O=C1c2cc(SCc3ccccc3)ccc2-n2c1nc1cc(F)cc(F)c1c2=O` [Compound 112] registered a half-maximal inhibitory concentration (IC50) below 50 nM.

`[2H]C([2H])(Nc1ccc2c(=O)n3c(nc2c1)C(=O)c1cc(C#N)ccc1-3)c1ccc(F)cc1` [Compound 70]: the half-inhibitory concentration (IC50) is below 50 nM.

`COC(=O)c1ccc2nc3n(c(=O)c2c1)-c1ccc(F)cc1C3=O` [Compound 150, methyl 8-fluoro-6,12-dioxo-6,12-dihydroindolo[2,1-b]quinazoline-2-carboxylate] showed an IC50 below 50 nM.

For the compound `NCCNC(=O)c1ccc2c(c1)/C(=N\O)c1nc3cc(Cl)ccc3c(=O)n1-2` [Compound 61], the IC50 is above 500 nM.

In turn, `N#Cc1ccc2c(c1)C(=O)c1nc3c(Br)ccc(F)c3c(=O)n1-2` [Compound 111] yielded an IC50 of 50 to 500 nM.

Take `CC(=O)NCc1ccc2c(=O)n3c(nc2c1)C(=O)c1cc(F)ccc1-3` [Compound 100, N-((8-fluoro-6,12-dioxo-6,12-dihydroindolo[2,1-b]quinazolin-3-yl)methyl)acetamide]: the IC50 was below 50 nM.

In turn, `N#Cc1ccc2c(c1)Cc1nc3cc(F)ccc3c(=O)n1-2` [Compound 72] came in with an IC50 below 50 nM.

Take `CN(C)Cc1ccc2nc3n(c(=O)c2c1)-c1ccc(SCc2ccccc2)cc1C3=O` [Compound 130]: the half-inhibitory concentration (IC50) was above 500 nM.

Consider `CS(=O)(=O)c1ccc2c(c1)C(=O)c1nc3cc(F)cc(F)c3c(=O)n1-2` [Compound 106], for which the IC50 is 50 to 500 nM.

With `N#Cc1ccc2c(c1)/C(=N\O)c1nc3cc(Cl)ccc3c(=O)n1-2` [Compound 84], the half-inhibitory concentration (IC50) is below 50 nM.

`CS(=O)(=O)c1ccc2c(c1)C(=O)c1nc3cc(Cl)cc(Cl)c3c(=O)n1-2` [Compound 87] had an IC50 below 50 nM.

With `O=c1c2cccc(Nc3ccc(F)cc3)c2nc2n1-c1ccc(F)cc1C2=NO` (stereo in doubt) [Compound 123, (Z)-8-Fluoro-4-((4-fluorophenyl)amino)-6-(hydroxyimino)indolo[2,1-b]quinazolin-12(6H)-one], the half-inhibitory concentration (IC50) lay within 50 to 500 nM.

As to `NS(=O)(=O)c1ccc2c(c1)C(=O)c1nc3cc(F)cc(F)c3c(=O)n1-2` [Compound 109], the IC50 is 50 to 500 nM.

For the compound `O=C(O)c1ccc2nc3n(c(=O)c2c1)-c1ccc(F)cc1C3=O` [Compound 153, 8-fluoro-6,12-dioxo-6,12-dihydroindolo[2,1-b]quinazoline-2-carboxylic Acid], the IC50 is above 500 nM.

`O=C1c2cc(F)ccc2-n2c1nc1cccc(Br)c1c2=O` [Compound 103, 1-bromo-8-fluoroindolo[2,1-b]quinazoline-6,12-dione] came in with a half-inhibitory concentration (IC50) below 50 nM.

Regarding `CN(C)S(=O)(=O)c1ccc2c(c1)C(=O)c1nc3cc(F)ccc3c(=O)n1-2` [Compound 79], the IC50 is below 50 nM.

With `O=C1c2cc(F)ccc2-n2c1nc1ccc(-c3c[nH]cn3)cc1c2=O` [Compound 151, 8-fluoro-2-(1H-imidazol-4-yl)indolo[2,1-b]quinazoline-6,12-dione], the IC50 is below 50 nM.

In turn, `NCc1ccc2nc3n(c(=O)c2c1)-c1ccc(F)cc1C3=O` [Compound 144, 2-(aminomethyl)-8-fluoroindolo[2,1-b]quinazoline-6,12-dione hydrochloride Salt] returned an IC50 below 50 nM.

As for `O=C1c2cc([N+](=O)[O-])ccc2-n2c1nc1cnccc1c2=O` [Compound 57, 9-Nitropyrido[3′,4′:4,5]pyrimido[1,2-a]indole-5,11-dione], the half-inhibitory concentration (IC50) is below 50 nM.

As for `O=C(NCc1ccc2c(=O)n3c(nc2c1)C(=O)c1cc(F)ccc1-3)OCc1ccccc1` [Compound 96, benzyl ((8-fluoro-6,12-dioxo-6,12-dihydroindolo[2,1-b]quinazolin-3-yl)methyl)carbamate], the half-maximal inhibitory concentration (IC50) is below 50 nM.

Compound `N#Cc1ccc2c(c1)C(=O)c1nc3cc(Cl)cc(Cl)c3c(=O)n1-2` [Compound 113] showed an IC50 below 50 nM.

Compound `N#Cc1ccc2c(c1)C(=O)c1nc3c(Oc4ccc(F)cc4)cccc3c(=O)n1-2` [Compound 71] gave a half-inhibitory concentration (IC50) below 50 nM.

Take `N#Cc1ccc2c(c1)C(=O)c1nc3ccc(CN4CCOCC4)cc3c(=O)n1-2` [Compound 136, 2-(morpholinomethyl)-6,12-dioxo-6,12-dihydroindolo[2,1-b]quinazoline-8-carbonitrile]: the half-inhibitory concentration (IC50) was below 50 nM.

`O=C1c2cc(SCc3ccccc3)ccc2-n2c1nc1c(Nc3ccc(F)cc3)cccc1c2=O` [Compound 120, 8-(Benzylthio)-4-((4-fluorophenyl)amino)indolo[2,1-b]quinazoline-6,12-dione] had a half-inhibitory concentration (IC50) above 500 nM.

`O=C1c2c(ccc(F)c2F)-n2c1nc1ccccc1c2=O` [Compound 60, 7,8-Difluoroindolo[2,1-b]quinazoline-6,12-dione] registered a 50% inhibitory concentration (IC50) below 50 nM.

For `O=C1c2cc(F)ccc2-n2c1nc1ccc(CNc3ccccn3)cc1c2=O` [Compound 141, 8-fluoro-2-((pyridin-2-ylamino)methyl)indolo[2,1-b]quinazoline-6,12-dione], the IC50 was 50 to 500 nM.

`CS(=O)(=O)NCc1ccc2c(=O)n3c(nc2c1)C(=O)c1cc(F)ccc1-3` [Compound 95, N-((8-fluoro-6,12-dioxo-6,12-dihydroindolo[2,1-b]quinazolin-3-yl)methyl)methanesulfonamide] gave an IC50 below 50 nM.

`O=C1c2cc([N+](=O)[O-])ccc2-n2c1nc1ccc(F)cc1c2=O` [Compound 54, 2-Fluoro-8-nitroindolo[2,1-b]quinazoline-6,12-dione] came in with an IC50 below 50 nM.

`CN(C)Cc1ccc2nc3n(c(=O)c2c1)-c1ccc(Br)cc1C3=O` [Compound 128] had an IC50 below 50 nM.

In turn, `NCc1ccc2c(=O)n3c(nc2c1)C(=O)c1cc(F)ccc1-3` [Compound 90, 3-(aminomethyl)-8-fluoroindolo[2,1-b]quinazoline-6,12-dione Hydrochloride Salt] displayed an IC50 of 50 to 500 nM.

The compound `CC(C)(C)OC(=O)NCc1ccc2c(=O)n3c(nc2c1)C(=O)c1cc(F)ccc1-3` [Compound 92] came in with an IC50 below 50 nM.

In turn, `[2H]C([2H])(Nc1ccc2c(=O)n3c(nc2c1)C(=O)c1cc(F)ccc1-3)c1ccc(F)cc1` [Compound 69] displayed a half-maximal inhibitory concentration (IC50) below 50 nM.

With `CNS(=O)(=O)c1ccc2c(c1)C(=O)c1nc3cc(F)ccc3c(=O)n1-2` [Compound 82], the IC50 is below 50 nM.

`CC(C)(C)OC(=O)NCCNC(=O)c1ccc2c(c1)C(=O)c1nc3cc(Cl)ccc3c(=O)n1-2` [Compound 77] had an IC50 of 50 to 500 nM.

The target of another experiment is Indoleamine 2,3-dioxygenase 1 (IDO1) (Homo sapiens (Human), UniProt P14902). Briefly: Cellular IDO1 assay: kynurenine production in IFN-γ-stimulated HeLa cells, colorimetric.
Chain of Indoleamine 2,3-dioxygenase 1 (IDO1) (P14902 whole entry): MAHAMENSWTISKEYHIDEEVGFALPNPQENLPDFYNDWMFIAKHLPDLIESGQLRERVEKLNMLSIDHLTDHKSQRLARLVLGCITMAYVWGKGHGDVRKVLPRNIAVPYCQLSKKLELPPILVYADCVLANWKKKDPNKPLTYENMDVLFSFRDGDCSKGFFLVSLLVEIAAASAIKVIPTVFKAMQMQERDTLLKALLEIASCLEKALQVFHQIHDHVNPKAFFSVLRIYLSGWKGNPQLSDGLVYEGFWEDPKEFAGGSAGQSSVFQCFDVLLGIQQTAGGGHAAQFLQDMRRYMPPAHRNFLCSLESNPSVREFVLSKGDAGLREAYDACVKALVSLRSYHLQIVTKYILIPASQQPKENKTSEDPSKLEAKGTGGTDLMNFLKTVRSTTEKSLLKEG
Conditions: not given
Consider `CS(=O)(=O)c1ccc2c(c1)C(=O)c1nc3cc(F)ccc3c(=O)n1-2` [Compound 14, 3-Fluoro-8-(methylsulfonyl)indolo[2,1-b]quinazoline-6,12-dione], for which the IC50 was 50 to 500 nM.

Compound `N#Cc1ccc2c(c1)C(=O)c1nc3c(Br)cccc3c(=O)n1-2` [Compound 46, 4-bromo-6,12-dioxo-6,12-dihydroindolo[2,1-b]quinazoline-8-carbonitrile] gave an IC50 of 50 to 500 nM.

With `O=C1c2cc([N+](=O)[O-])ccc2-n2c1nc1c(Br)c(Cl)ccc1c2=O` [Compound 50, 4-Bromo-3-chloro-8-nitroindolo[2,1-b]quinazoline-6,12-dione], the concentration for half-maximal inhibition (IC50) is above 500 nM.

On to `NC(=O)c1ccc2c(c1)C(=O)c1nc3cc(Cl)cc(Cl)c3c(=O)n1-2` [Compound 23, 1,3-Dichloro-6,12-dioxoindolo[2,1-b]quinazoline-8-carboxamide], for which the concentration for half-maximal inhibition (IC50) lay within 50 to 500 nM.

In the case of `Cc1cccc2nc3n(c(=O)c12)-c1ccc([N+](=O)[O-])cc1C3=O` [Compound 38, 1-Methyl-8-nitroindolo[2,1-b]quinazoline-6,12-dione], the IC50 is below 50 nM.

Values taken from US20250171452A1 (Viscient Bio, Inc., priority 2022, published 2025).
